This note sets out measurements from PMC11649397, “The study of halogen effect on the reactivity of the serine-targeting covalent warheads” (Frontiers in Chemistry, 2024).

Read-outs that look alike come from different tables or passages of the source.

Assay [1] has as its target T1, hCES1A (Homo sapiens, UniProt P23141).
T1 sequence (P23141 18-567): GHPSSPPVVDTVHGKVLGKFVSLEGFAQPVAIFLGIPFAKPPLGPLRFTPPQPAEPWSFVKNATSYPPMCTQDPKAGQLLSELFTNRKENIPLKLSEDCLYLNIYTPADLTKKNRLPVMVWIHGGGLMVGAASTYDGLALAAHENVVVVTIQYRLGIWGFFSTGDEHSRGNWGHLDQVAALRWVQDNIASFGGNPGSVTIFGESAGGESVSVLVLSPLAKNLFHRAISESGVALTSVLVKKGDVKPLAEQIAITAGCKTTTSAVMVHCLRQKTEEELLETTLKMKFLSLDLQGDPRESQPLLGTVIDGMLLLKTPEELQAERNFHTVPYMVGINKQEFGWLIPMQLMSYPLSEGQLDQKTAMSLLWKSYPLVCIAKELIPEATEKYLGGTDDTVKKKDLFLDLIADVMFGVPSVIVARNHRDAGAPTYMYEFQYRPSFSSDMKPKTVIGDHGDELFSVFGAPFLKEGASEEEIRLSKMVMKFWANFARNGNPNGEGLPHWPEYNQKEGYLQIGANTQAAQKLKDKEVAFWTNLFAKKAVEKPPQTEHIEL
Briefly: Inhibition assay on hCES1A (bioluminogenic substrate NLMe). It is filed as biochemical. The conditions noted are these: for IC50: mean ± SD, n = 3; for hCES1A IC50 Fold Increase: ratio of IC50 at 3 min to IC50 at 33 min. The protocol: In this study, a known bioluminogenic probe substrate NLMe was used for human carboxylesterase 1 (hCES1A) inhibition assays. ([Wang et al., 2020]). In brief, the incubation mixture (0.1 mL) consisted of 0.1 M buffer PBS (PH 6.5), hCES1A (0.1 μg/mL, final concentration) and each test compound. […] After 20 min incubation, equal volume of LDR was added to stop reaction. The luminescence signals were monitored in the microplate reader (SpectraMax iD3Molecular Devices, Austria). […]
(§1) The household library of covalent fragments including D and F was from Organic Chemistry […]
(§2) Fig. S1. Partial fragment molecules of a household library targeting to serine. […]
Inhibition assay on hCES1A
In this study, a known bioluminogenic probe substrate NLMe was used for human carboxylesterase 1 (hCES1A) inhibition assays. 2 In brief, the incubation mixture (0.1 mL) consisted of 0.1 M buffer PBS (PH 6.5), hCES1A (0.1 μg/mL, final concentration) and each test compound. […]
After 20 min incubation, equal volume of LDR was added to stop reaction.

In another assay the target is T2, hCES2A (Homo sapiens, UniProt O00748).
T2 sequence (O00748 27-559): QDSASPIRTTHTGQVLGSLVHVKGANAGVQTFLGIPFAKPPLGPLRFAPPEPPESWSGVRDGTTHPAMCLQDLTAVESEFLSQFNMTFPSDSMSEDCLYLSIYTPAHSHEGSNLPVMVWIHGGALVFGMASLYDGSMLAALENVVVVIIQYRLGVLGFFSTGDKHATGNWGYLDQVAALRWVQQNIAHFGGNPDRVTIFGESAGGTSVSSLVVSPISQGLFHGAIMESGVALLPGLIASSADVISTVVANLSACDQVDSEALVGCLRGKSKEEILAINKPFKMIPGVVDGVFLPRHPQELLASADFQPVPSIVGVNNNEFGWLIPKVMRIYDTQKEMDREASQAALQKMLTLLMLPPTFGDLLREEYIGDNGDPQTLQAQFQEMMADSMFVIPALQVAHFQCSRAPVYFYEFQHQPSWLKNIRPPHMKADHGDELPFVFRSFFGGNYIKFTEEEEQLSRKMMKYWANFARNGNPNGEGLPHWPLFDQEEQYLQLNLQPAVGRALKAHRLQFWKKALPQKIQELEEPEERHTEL
Put plainly: Inhibition assay on hCES2A (fluorescent substrate FD). In kind it is biochemical. Particulars: mean ± SD, n = 3. On the procedure:
1. Detailed experimental, materials, and methods
as §1, §2
Inhibition assay on hCES2A
Human carboxylesterase 2 (hCES2A) inhibition assays were conducted using FD, a known fluorescent substrate. 3 Briefly, hCES2A (0.4 μg/mL, final concentration) was preincubated with analytes/DMSO (as a control group) in PBS (pH 7.4) at 37 °C for 3 min. This was followed by adding the substrate FD (4 μM, final concentration) in the incubation mixture and allowing it to react for 30 min. The fluorescent signals (excitation/emission, 480 nm/525 nm) were continuously recorded by a microplate reader (SpectraMax iD3Molecular Devices, Austria). […]

The target of assay [2] is T1, hCES1A. Briefly: Co-crystallography with hCES1A. It is filed as binding. The conditions noted are these: 1:5 molar ratio. The protocol:
Purified hCES1A incubated with F-3 and F-4 at 1:5 M ratio for 1 h at 18°C. Crystallisation screening was performed using commercially available kit sets using sitting drop vapor diffusion at 16°C. Both diffraction-quality crystals were obtained from the condition containing 14.4% peg8000 (w/v), 0.1M MES 6.4, 0.3M CaAc and 20% glycerol. Crystals were flash cooled in liquid nitrogen after cryoprotection in 25% glycerin. Date was collected on 02U1 at Shanghai Synchrotron Radiation Facility (SSRF). Data images were processed using program HKL2000. ([Otwinowski and Minor, 1997]). Crystal structures were solved using molecular replacement with the Phenix software suite using unbound hces1a (Protein Data Bank [PDB] accession number 1MX1 as the search model. Structure refinement was performed using Phenix. ([Adams et al., 2010]). The program COOT was used for manual rebuilding. ([Emsley and Cowtan, 2004]). Molecular graphics images were generated using CCP4MG. ([McNicholas et al., 2011]). […]
fluorogenic probe. 4 Briefly, the incubation mixtures (0.1 mL) contained Tris-HCl buffer, hPL solution (0.25 μg/mL, final concentration), porcine bile salt (0.1 mg/mL, final concentration) and each inhibitor (with different concentrations). […] The fluorescent signals of hydrolytic product were quantified by using the microplate reader (Spectra Max M4, Austria), with the wavelength of 600 nm and 660 nm for excitation and emission, respectively. […]
OPTS, a known fluorogenic probe, was used as the substrate to assess the residual activities of Notum in the presence of each tested compound. […] After preincubated at 37 °C for 1 min, OPTS was added to initiate the hydrolytic reaction and the multi-mode microplate reader (SpectraMax iD3, Molecular Devices, Austria) was used to analyze the florescence signals of the […]
The F-3, F-4, F-10-bound peptides was analysed using the nanoLC-MS/MS system, respectively.6 The purified hCES1A (150 μg, final content) was co-incubated with the small molecule inhibitor F-3/ F-4/ F-10 (100 μM, final concentration) at 4 °C and 25 °C, respectively, for 4h. […]

The mark [3] stands for this setting: 3 min incubation, read-out: hCES1A IC50 3 min.
Where [4] appears, read: 33 min incubation, read-out: hCES1A IC50 33 min.
Where [5] appears, read: 3 min incubation, read-out: hCES2A IC50 3 min.
Setting [6] is: 33 min incubation, read-out: hCES2A IC50 33 min.

On to `O=C(c1ccc(C(F)(F)F)cc1)C(F)(F)F` [Compound F-11], for which the IC50 at hCES1A [1] (setting [3]) and at hCES1A [1] (setting [4]) was above 2000 nM each time.
`O=C(CF)c1ccc(Cl)cc1` [Compound F1-2]: the results for the IC50 at hCES1A [1] (setting [3]) and on hCES1A [1] (setting [4]) were 1210 nM and 874 ± 92.2 nM, respectively. Further, the “hCES1A IC50 Fold Increase” value on hCES1A [1] came to 1.4.
Regarding `Nc1ccc(C(=O)C(F)(F)F)cc1` [Compound F-12], the IC50 at hCES1A [1] (setting [3]) was found to be 470 ± 120 nM; at hCES1A [1] (setting [4]) it was 670 ± 130 nM.
For the molecule `O=C(c1ccc(Br)cc1)C(F)(F)F` [Compound F-7], the results for the IC50 at hCES1A [1] (setting [3]) and at hCES1A [1] (setting [4]) were 16.1 ± 2.3 nM and 2.1 ± 0.6 nM, respectively. In addition, the “hCES1A IC50 Fold Increase” value on hCES1A [1] amounted to 7.7.
In the case of `O=C(c1ccc(Cl)cc1)C(F)F` [Compound F1-1], the values for the IC50 at hCES1A [1] (setting [3]) and on hCES1A [1] (setting [4]) were 58 ± 6 nM and 102 ± 37.4 nM, respectively. Moreover, the “hCES1A IC50 Fold Increase” value on hCES1A [1] is given as 0.6.
For the molecule `O=C(c1ccc(F)cc1)C(F)(F)F` [Compound F-8], the IC50 on hCES1A [1] (setting [3]) is 1700 nM; at hCES1A [1] (setting [4]), 603 ± 107 nM. For the same molecule, at hCES1A [1], the “hCES1A IC50 Fold Increase” value was 2.8.
As for `O=C(c1cccc(Cl)c1)C(F)(F)F` [Compound F-2], the IC50 at hCES1A [1] (setting [3]) amounted to 34.1 ± 5.3 nM; at hCES1A [1] (setting [4]), 2.5 ± 0.4 nM; at hCES2A (setting [5]), 76.8 ± 10.9 nM; on hCES2A (setting [6]), 90 ± 21 nM. Also, the “hCES1A IC50 Fold Increase” value on hCES1A [1] was 13.6.
As to `O=C(c1ccc(I)cc1)C(F)(F)F` [Compound F-9], the IC50 at hCES1A [1] (setting [3]) amounted to 37.7 ± 8.6 nM; on hCES1A [1] (setting [4]), 6.2 ± 1.1 nM. The “hCES1A IC50 Fold Increase” value at hCES1A [1] was determined as 6.1.
The like results for `O=C(c1cccc(Br)c1)C(F)(F)F` [Compound F-5] were, in that order, 17 ± 3 nM, 1.7 ± 0.5 nM and 10.0.
On to `O=C(c1ccc(Cl)c(Cl)c1)C(F)(F)F` [Compound F-4], for which the “covalent binding mode at the catalytic triad (Ser221) in co-crystal” value at hCES1A [2] was “forming an expected hemiacetal covalent bond”. Besides, the values for the IC50 at hCES1A [1] (setting [3]) and at hCES1A [1] (setting [4]) were 10 ± 1.4 nM and 2.4 ± 0.4 nM, respectively. Besides, the “hCES1A IC50 Fold Increase” value at hCES1A [1] stood at 4.2.
Consider `O=C(c1ccccc1Cl)C(F)(F)F` [Compound F-3], for which the “covalent binding mode at the catalytic triad (Ser221) in co-crystal” value at hCES1A [2] is recorded as “promising covalent binding modes”. For the same molecule, the IC50 at hCES1A [1] (setting [3]) was 11.6 ± 0.7 nM; at hCES1A [1] (setting [4]) it was 2.3 ± 0.4 nM; on hCES2A (setting [5]), 102 ± 20.6 nM; at hCES2A (setting [6]), 85.6 ± 36 nM. The “hCES1A IC50 Fold Increase” value at hCES1A [1] is 5.0.
With `COc1ccc(C(=O)C(F)(F)F)cc1` [Compound F-14], the IC50 on hCES1A [1] (setting [3]) worked out at 30.2 ± 12.1 nM; at hCES1A [1] (setting [4]) it was 29.7 ± 20.7 nM.
On to `O=C(c1ccc(Cl)cc1)C(F)(F)F` [Compound F-1], for which the IC50 on hCES1A [1] (setting [3]) was 14.4 ± 1.9 nM; at hCES1A [1] (setting [4]) it was 1.9 ± 0.2 nM; on hCES2A (setting [5]) it was 59.1 ± 9.8 nM; on hCES2A (setting [6]) it was 71.3 ± 19.4 nM. The “hCES1A IC50 Fold Increase” value at hCES1A [1] was 7.6.
With `O=C(c1ccccc1Br)C(F)(F)F` [Compound F-6], the IC50 on hCES1A [1] (setting [3]) came to 9.9 ± 1.01 nM; at hCES1A [1] (setting [4]), 52.8 ± 15.9 nM. In addition, at hCES1A [1], the “hCES1A IC50 Fold Increase” value was determined as 0.2.
Turning to `O=C(c1cc(Cl)c(Cl)c(Cl)c1)C(F)(F)F` [Compound F-10], the IC50 on hCES1A [1] (setting [3]) was 30 ± 4.5 nM; at hCES1A [1] (setting [4]), 2.8 ± 0.4 nM. In addition, the “hCES1A IC50 Fold Increase” value at hCES1A [1] was 10.7.
For `CCc1ccc(C(=O)C(F)(F)F)cc1` [Compound F-15], the values for the IC50 on hCES1A [1] (setting [3]) and on hCES1A [1] (setting [4]) were 18.7 ± 4.2 nM and 23.8 ± 12.4 nM, respectively.

By IC50 is commonly meant the concentration at which inhibition is half-maximal.
